According to ChEMBL document CHEMBL6096732 (J Med Chem, 2025):
Calls of active or inactive are those of the source. No cut-off for these calls is given here.

Experiments:
Mus musculus [1] = assay: Immunomodulatory activity in male C57BL/6 mouse model implanted with mouse B16-F10 cells assessed as increase in CD3+ CD4+ T cells in tumor at 50 mg/kg, po administered once daily for 14 days by flow cytometric analysis (reference value: 3.1 %); assay type: functional; details: time 14 day
[2] = molecular target: T1, Histone deacetylase 3 (Mus musculus) (UniProt O88895); assay: Inhibition of HDAC3 in mouse 4T1 cells assessed as increase in histone H3 acetylation level at 5 to 20 uM incubated for 24 hrs by Western blot analysis; assay type: cell-based; details: dose 5-20 µM
T1 sequence (whole entry): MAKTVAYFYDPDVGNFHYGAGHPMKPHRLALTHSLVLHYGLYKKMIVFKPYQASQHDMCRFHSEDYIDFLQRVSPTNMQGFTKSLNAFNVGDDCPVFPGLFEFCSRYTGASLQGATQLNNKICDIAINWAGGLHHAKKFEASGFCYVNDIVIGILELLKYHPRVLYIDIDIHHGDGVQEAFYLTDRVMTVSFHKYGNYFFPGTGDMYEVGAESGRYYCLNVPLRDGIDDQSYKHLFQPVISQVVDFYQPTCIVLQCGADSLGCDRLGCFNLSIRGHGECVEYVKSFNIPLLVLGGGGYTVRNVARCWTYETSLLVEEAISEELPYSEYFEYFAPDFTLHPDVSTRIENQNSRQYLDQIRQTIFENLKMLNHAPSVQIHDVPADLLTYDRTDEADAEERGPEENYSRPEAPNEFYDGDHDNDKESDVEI

SK-OV-3 = assay: cells; assay type: functional, cell-based; details: Homo sapiens, SK-OV-3, 72 h
Description: Antiproliferative activity against human SK-OV-3 cells assessed as inhibition of cell growth incubated for 72 hrs by MTT assay

Histone deacetylase 2 = Histone deacetylase 2 (Homo sapiens, UniProt Q92769); assay: Inhibition of recombinant HDAC2 (unknown origin) using Boc-Lys(acetyl)-AMC as substrate preincubated for 1 hr followed by substrate addition and measured after 2 hrs by fluorescence based micro plate reader analysis
Chain of Histone deacetylase 2 (Q92769 whole entry): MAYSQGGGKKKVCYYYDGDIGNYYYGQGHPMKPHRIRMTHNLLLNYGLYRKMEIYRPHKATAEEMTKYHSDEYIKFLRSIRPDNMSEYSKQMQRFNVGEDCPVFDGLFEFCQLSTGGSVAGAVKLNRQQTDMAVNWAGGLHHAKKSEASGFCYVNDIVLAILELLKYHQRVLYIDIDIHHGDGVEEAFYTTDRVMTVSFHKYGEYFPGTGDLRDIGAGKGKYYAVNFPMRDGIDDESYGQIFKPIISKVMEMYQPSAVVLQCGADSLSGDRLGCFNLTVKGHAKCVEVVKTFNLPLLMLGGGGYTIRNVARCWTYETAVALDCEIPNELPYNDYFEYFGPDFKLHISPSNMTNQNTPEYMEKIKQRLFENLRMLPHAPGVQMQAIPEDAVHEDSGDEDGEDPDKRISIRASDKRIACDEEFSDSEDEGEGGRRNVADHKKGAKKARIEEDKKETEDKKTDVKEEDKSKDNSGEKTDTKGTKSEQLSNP

Histone deacetylase 8 = Histone deacetylase 8 (Homo sapiens, UniProt Q9BY41); assay: Inhibition of recombinant HDAC8 (unknown origin) using Boc-Lys(trifluoroacetyl)-AMC as substrate preincubated for 1 hr followed by substrate addition and measured after 2 hrs by fluorescence based micro plate reader analysis
Chain of Histone deacetylase 8 (Q9BY41 whole entry): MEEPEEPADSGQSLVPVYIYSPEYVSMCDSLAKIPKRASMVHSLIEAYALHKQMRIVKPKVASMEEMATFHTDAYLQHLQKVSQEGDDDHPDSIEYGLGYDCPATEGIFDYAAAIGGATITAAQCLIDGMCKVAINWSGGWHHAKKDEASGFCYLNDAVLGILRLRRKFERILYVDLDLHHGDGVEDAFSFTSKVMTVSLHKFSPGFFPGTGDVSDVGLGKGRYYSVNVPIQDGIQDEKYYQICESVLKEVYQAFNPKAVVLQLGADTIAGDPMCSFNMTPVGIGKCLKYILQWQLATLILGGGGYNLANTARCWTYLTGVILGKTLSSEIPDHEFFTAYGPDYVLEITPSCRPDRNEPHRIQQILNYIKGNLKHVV

[3] = Oral bioavailability in male Sprague-Dawley rat at 20 mg/kg measured after 12 hrs by LC-MS/MS analysis; assay type: ADME, organism-based; details: in vivo
[4] = molecular target: T1, Histone deacetylase 3 (Mus musculus); assay: Inhibition of HDAC3 in mouse B16-F10 cells assessed as increase in acetylated histone H3 level at 5 uM incubated for 24 hrs by DAPI staining based immunofluorescence analysis; assay type: cell-based
Mus musculus [5] = assay: Effect on acetylated alpha-tubulin level in male C57BL/6 mouse tumor implanted with mouse B16-F10 cells at 50 mg/kg, po administered once daily via gavage for 14 days by Western blot analysis; assay type: functional, organism-based; details: time 14.0 day
B16-F10 [6] = assay: Effect on acetylated H3K56 expression level in mouse B16-F10 cells at 5 to 20 uM incubated for 24 hrs by Western blot analysis; assay type: functional, cell-based; details: dose 5-20 µM
[7] = MRT (0 to infinity) in male Sprague-Dawley rat at 20 mg/kg, po measured after 12 hrs by LC-MS/MS analysis; assay type: ADME, organism-based; details: in vivo
B16-F10 [8] = assay: Induction of apoptosis in mouse B16-F10 cells assessed as increase in apoptotic cells at 10 uM incubated for 48 hrs by Annexin V-FITC/PI staining based flow cytometric analysis relative to control; assay type: functional
Mus musculus [9] = assay: In vivo induction of PD-L1 degradation in male C57BL/6 mouse model implanted with mouse B16-F10 cells assessed as decrease in PD-L1 protein expression in tumor at 50 mg/kg, po co-administered with NP-19 as once daily dosage via gavage for 14 days by Western blot analysis; assay type: functional, organism-based; details: time 14.0 day
[10] = Apparent volume of distribution in male Sprague-Dawley rat at 2 mg/kg, iv measured after 12 hrs by LC-MS/MS analysis; assay type: ADME, organism-based; details: in vivo, read-out: Vz
4T1 [11] = assay: Induction of DNA damage in mouse 4T1 cells assessed as upregulation of nuclear gamma-H2AX expression at 5 uM by DAPI staining based immunofluorescence analysis; assay type: functional, cell-based
[12] = AUC (0 to 12 hrs) in male Sprague-Dawley rat at 20 mg/kg, po measured after 12 hrs by LC-MS/MS analysis; assay type: ADME, organism-based; details: in vivo
[13] = Half-life in male Sprague-Dawley rat at 2 mg/kg, iv measured after 12 hrs by LC-MS/MS analysis; assay type: ADME, organism-based; details: in vivo
[14] = Toxicity in male C57BL/6 mouse implanted with mouse B16-F10 cells assessed as histopathological changes in heart at 50 mg/kg, po administered once daily for 14 days by HandE staining based microscopic analysis; assay type: organism-based; details: in vivo, 336 h, time 14 day
[15] = Clearance in male Sprague-Dawley rat at 2 mg/kg, iv measured after 12 hrs by LC-MS/MS analysis; assay type: ADME, organism-based; details: in vivo
[16] = MRT (0 to t) in male Sprague-Dawley rat at 2 mg/kg, iv measured after 12 hrs by LC-MS/MS analysis; assay type: ADME, organism-based; details: in vivo
[17] = molecular target: Programmed cell death 1 ligand 1 (Mus musculus) (UniProt Q9EP73); assay: (§1) Induction of PD-L1 degradation in mouse B16-F10 cells assessed as decrease in PD-L1 protein level incubated for 24 hrs by Western blot analysis; assay type: cell-based
Chain of Programmed cell death 1 ligand 1 (Mus musculus) (Q9EP73 whole entry): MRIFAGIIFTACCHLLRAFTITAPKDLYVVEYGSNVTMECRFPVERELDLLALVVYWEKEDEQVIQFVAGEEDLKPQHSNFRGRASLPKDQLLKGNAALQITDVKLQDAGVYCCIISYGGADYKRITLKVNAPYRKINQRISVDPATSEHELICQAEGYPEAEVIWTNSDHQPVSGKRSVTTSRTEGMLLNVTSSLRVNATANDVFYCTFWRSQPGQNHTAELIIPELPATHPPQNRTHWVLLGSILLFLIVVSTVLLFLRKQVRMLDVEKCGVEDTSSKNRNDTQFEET

[18] = molecular target: Programmed cell death 1 ligand 1 (Mus musculus, UniProt Q9EP73); assay: as §1; assay type: cell-based
Chain of Programmed cell death 1 ligand 1 (Q9EP73 whole entry): as above

4T1 [19] = assay: Effect on acetylated alpha-tubulin expression level in mouse 4T1 cells at 5 to 20 uM incubated for 24 hrs by Western blot analysis; assay type: functional, cell-based; details: dose 5-20 µM
4T1 [20] = assay: Antitumor activity against mouse 4T1 cells implanted in female BALB/c mouse model assessed as induction of DNA damage by measuring increase in gamma-H2AX fluorescence intensity in tumor co-administrated orally with olaparib as once daily dose via gavage for 14 days by DAPI staining based immunofluorescence analysis; assay type: functional, cell-based; details: route po, time 14.0 day
[21] = Half-life in male Sprague-Dawley rat at 20 mg/kg, po measured after 12 hrs by LC-MS/MS analysis; assay type: ADME, organism-based; details: in vivo
Histone deacetylase 11 = Histone deacetylase 11 (Homo sapiens, UniProt Q96DB2); assay: Inhibition of recombinant HDAC11 (unknown origin) preincubated for 1 hr followed by substrate addition and measured after 2 hrs by fluorescence based micro plate reader analysis
Chain of Histone deacetylase 11 (Q96DB2 whole entry): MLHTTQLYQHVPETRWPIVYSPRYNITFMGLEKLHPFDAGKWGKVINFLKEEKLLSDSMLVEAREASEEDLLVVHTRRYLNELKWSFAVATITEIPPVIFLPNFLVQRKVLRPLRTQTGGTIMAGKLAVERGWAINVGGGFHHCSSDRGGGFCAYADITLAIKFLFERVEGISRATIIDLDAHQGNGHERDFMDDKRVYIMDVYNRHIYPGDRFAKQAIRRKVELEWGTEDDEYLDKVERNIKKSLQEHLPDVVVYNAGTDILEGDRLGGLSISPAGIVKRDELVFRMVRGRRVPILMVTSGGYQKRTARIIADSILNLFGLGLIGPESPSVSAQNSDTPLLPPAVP

Mus musculus [22] = assay: Immunomodulatory activity in male C57BL/6 mouse model implanted with mouse B16-F10 cells assessed as increase in CD3+ CD4+ T cells in tumor at 50 mg/kg, po co-administered with NP-19 as once daily dosage via gavage for 14 days by flow cytometric analysis (reference value: 3.1 %); assay type: functional; details: time 14 day
Histone deacetylase 3 = Histone deacetylase 3 (Homo sapiens, UniProt O15379); details: dose 500.0 nM, time 3.0 hrs
Chain of Histone deacetylase 3 (O15379 whole entry): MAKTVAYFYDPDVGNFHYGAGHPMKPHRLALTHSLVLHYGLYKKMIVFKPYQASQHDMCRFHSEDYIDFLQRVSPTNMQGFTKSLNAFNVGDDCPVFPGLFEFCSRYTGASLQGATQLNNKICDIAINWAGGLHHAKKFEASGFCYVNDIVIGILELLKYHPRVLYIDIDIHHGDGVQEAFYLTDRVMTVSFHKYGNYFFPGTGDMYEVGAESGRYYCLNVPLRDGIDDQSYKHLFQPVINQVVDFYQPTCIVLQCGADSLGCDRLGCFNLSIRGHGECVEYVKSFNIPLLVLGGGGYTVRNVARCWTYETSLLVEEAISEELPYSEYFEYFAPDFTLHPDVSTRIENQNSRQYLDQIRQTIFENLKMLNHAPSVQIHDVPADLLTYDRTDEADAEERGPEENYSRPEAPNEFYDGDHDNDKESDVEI

[23] = Tmax in male Sprague-Dawley rat at 2 mg/kg, iv measured after 12 hrs by LC-MS/MS analysis; assay type: ADME, organism-based; details: in vivo
B16-F10 [24] = assay: Cell cycle arrest in mouse B16-F10 cells assessed as decrease in G2/M phase population at 5 to 20 uM incubated for 48 hrs by RNase A/PI staining based flow cytometric analysis; assay type: functional; details: dose 5-20 µM
4T1 [25] = assay: Antitumor activity against mouse 4T1 cells implanted in female BALB/c mouse model assessed as decrease in PAPR1 expression in tumor administrated orally as once daily dose via gavage for 14 days by DAPI staining based immunofluorescence analysis; assay type: functional, cell-based; details: route po, time 14.0 day

inhibition [2]: Active
IC50 (SK-OV-3): 12.8 µM
IC50 (Histone deacetylase 2): 9.77 µM
IC50 (Histone deacetylase 8): > 10 µM
bioavailability [3]: 95.3%
inhibition [4]: Active
MRT inf [7]: 294 min
Vd [10]: 2.17 L/kg
AUC(0-t) at 12 h [12]: 7.83 µg·h/mL
half-life [13]: 37.8 min
clearance [15]: 2.37 L/h/kg
MRT last at 12 h [16]: 44.3 min
half-life [21]: 122 min
IC50 (Histone deacetylase 11): 8.87 µM
inhibition (Histone deacetylase 3): 96%
Tmax [23]: 4.98 min
Compound: CCCNNC(=O)c1ccc(Cn2c3ccccc3c3c(-c4ccccn4)nc4ccccc4c32)cc1
Activity (Mus musculus [1]): 22%
Activity (Mus musculus [5]): inactive
Activity (B16-F10 [6]): inactive
Activity (B16-F10 [8]): 44.7%
Activity (Mus musculus [9]): Active
Activity (4T1 [11]): Active
Activity [14]: Non-toxic
Activity [17]: Dose-dependent-effect
DC50 [18]: 4.03 µM
Activity (4T1 [19]): inactive
Activity (4T1 [20]): Active
Activity (Mus musculus [22]): 32%
Activity (B16-F10 [24]): Active
Activity (4T1 [25]): Active; Comparable To The Effect Of Olaparib
